Experiments:
[1] = system: HBsAg in HBV-infected PHH; assay: Cryopreserved primary human hepatocytes (PHH) HBV infection assay, extracellular HBsAg (CLIA); type: cell-based; conditions: Hepatitis B virus, Hepatocyte, 216 h, read-out: HBsAg IC50, Cryopreserved PHH infected with HBV, 9 days post-compound treatment, extracellular HBsAg
Procedure: This assay is used to confirm the anti-HBV effect of the compounds in HBV PHH infection assay. Cryopreserved PHH (BioreclamationIVT, Lot YJM) was thawed at 37° C. and gently transferred into pre-warmed InVitroGRO HT medium (BioreclamationIVT, Cat. S03317). The mixture was centrifuged at 70 relative centrifugal force (RCF) for 3 minutes at RT, and the supernatant was discarded. Pre-warmed InVitroGRO CP medium (BioreclamationIVT, Cat #S03316) was added to the cell pellet to gently re-suspend cells. The cells were seeded at the density of 5.8×10^4 cells per well to collagen I coated 96-well plate (Gibco, Cat. A1142803) with the InVitroGRO CP medium. All plates were incubated at 37° C. with 5% CO2 and 85% humidity.
At 20 hours after plating, the medium was changed to PHH culture medium (Dulbecco's Modified Eagle Medium (DMEM)/F12 (1:1) (Gibco, Cat. 11320-033), 10% fetal bovine semm (Gibco Cat. 10099141), 100 U/mL penicillin, 100 μg/mL streptomycin (Gibco, Cat. 151401-122), […] (Invitrogen Cat. PHG0311L), 20 ng/mL dexamethasone (Sigma, Cat. D4902) and 250 ng/mL human recombinant insulin (Gibco, Cat. 12585-014)). And the cells were incubated at 37° C. with 5% CO2 and 85% humidity for 4 hours. The medium was then changed to pre-warmed PHH culture medium containing 4% polyethylene glycol (PEG) MW8000 (Sigma, Cat. P1458-50 ML) and 1% DMSO (Sigma, Cat. D2650). 5.8×10^6 genomic equivalents of HBV were added into the medium.
At 24 hours post-infection, the cells were gently washed with PBS and refreshed with PHH culture medium supplemented with 1% DMSO, and 0.25 mg/mL Matrix gel (Corning, Cat. 356237) at 200 μL per well. All plates were immediately placed in at 37° C. CO2 incubator.
24 hours later, serial dilutions of compounds made with DMSO were further diluted with the same culture medium (PHH culture medium supplemented with 1% DMSO and 0.25 mg/mL Matrix gel as described above) before they were added to the cells to reach desired final compound concentrations and 1% DMSO concentration. The medium containing the compounds were refreshed every three days.
At 9 days post-compound treatment, extracellular HBsAg level were measured with Chemiluminescence Immuno Assay (CLIA) kit (Autobio, HBsAg Quantitative CLIA). Extracellular HBV DNA was extracted by MagNA Pure 96 system (Roche) and then determined by quantitative PCR with the following primers and probe: […]
HBsAg IC50 and HBV DNA IC50 values were derived from the dose-response curve using 4 parameter logistic curve fit method. The compounds of formula (I) have HBsAg IC50<20 μM, particularly <1 μM; and HBV DNA IC50<50 μM.

[2] = Human microsome stability assay; type: in vitro ADME; conditions: human liver microsomes, 1 μM test compound, 0.5 mg/mL microsomal protein, 37° C., pH 7.4, 0-30 minutes
How it was run: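 Compound (1 μM) incubated at 37 °C with human liver microsomes (0.5 mg/mL protein) in 100 mM potassium phosphate, pH 7.4, after 10 min preincubation; started with NADPH regenerating system. Sampled at 0–30 min, quenched with cold ACN; remaining parent quantified by LC-MS/MS, with no-NADPH controls.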

[3] = system: HBeAg (surrogate marker for cccDNA) in HepDES19 cells; assay: Engineered HepDES19 primary screen assay (HBeAg ELISA); type: cell-based, HBV; conditions: Hepatitis B virus, HepDES19, 120 h, read-out: IC50 (HBeAg level, HepDES19 primary screen assay), HepDES19 cells, 5 days compound incubation, HBeAg ELISA
How it was run: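 HepDES19 cells were induced by Tet withdrawal for 8 days, then treated with half-log compound dilutions (1% DMSO final) for 5 days at 37 °C. HBeAg was measured by ELISA as the cccDNA surrogate, viability by CCK-8, and IC50 from a 4-parameter logistic fit.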

Compound | IC50 [1] | Clearance of Human microsome [2] | IC50 [3]
Cc1cc(-c2cc(=O)c3cccc(Cl)c3o2)c(OCCC(=O)O)cc1OC(F)(F)F [Example A017, 3-[2-(8-chloro-4-oxo-chromen-2-yl)-4-methyl-5-(trifluoromethoxy)phenoxy]propanoic acid] | 1.84 µM | 9.98 mL/min/kg | 3.17 µM
CC(CC(=O)O)Oc1cc(C(F)(F)F)ccc1-c1cc(=O)c2cccc(Cl)c2o1 (stereo not drawn) [Example A039, 3-[2-(8-chloro-4-oxo-chromen-2-yl)-5-(trifluoromethyl)phenoxy]butanoic acid] | 7.08 µM | 6.37 mL/min/kg | 0.142 µM
COc1cc(-c2cc(=O)c3cccc(Cl)c3o2)c(OCCO[C@H]2C[C@@H](C(=O)O)C2)cc1Br [Example C073, Cis-3-[2-[5-bromo-2-(8-chloro-4-oxo-chromen-2-yl)-4-methoxy-phenoxy]ethoxy]cyclobutanecarboxylic acid] | 7.56 µM | 7.85 mL/min/kg | 0.92 µM
Cc1ccc(-c2cc(=O)c3cccc(Cl)c3o2)c(OCCCOCC(=O)O)c1 [Example C002, 2-[3-[2-(8-chloro-4-oxo-chromen-2-yl)-5-methyl-phenoxy]propoxy]acetic acid] | 2.43 µM | 6.15 mL/min/kg | 0.348 µM
O=c1cc(-c2cc(C(F)(F)F)c(Br)cc2OCCO[C@H]2C[C@H](C(=O)O)C2)oc2c(Cl)cccc12 [Example C042-B] | 8.96 µM | 6.15 mL/min/kg | 15.3 µM
O=c1cc(-c2ccc(C(F)(F)F)cc2OCCO[C@H]2C[C@@H](C(=O)O)C2)oc2c(Cl)cccc12 [Example C026, Cis-3-[2-[2-(8-chloro-4-oxo-chromen-2-yl)-5-(trifluoromethyl)phenoxy]ethoxy]cyclobutanecarboxylic acid] | 8.95 µM | 6.81 mL/min/kg | 0.526 µM
O=C(O)C1CC(OCCCOc2cc(C(F)(F)F)ccc2-c2cc(=O)c3cccc(Cl)c3o2)C1 (stereo not drawn) [Example C103, 3-[3-[2-(8-chloro-4-oxo-chromen-2-yl)-5-(trifluoromethyl)phenoxy]propoxy]cyclobutanecarboxylic acid] | 7.56 µM | 6.15 mL/min/kg | 2.28 µM
CS(=O)(=O)NC(=O)[C@H]1C[C@@H](OCCOc2cc(Br)ccc2-c2cc(=O)c3cccc(Cl)c3o2)C1 [Example C122, Cis-3-[2-[5-bromo-2-(8-chloro-4-oxo-chromen-2-yl)phenoxy]ethoxy]-N-methylsulfonyl-cyclobutanecarboxamide] | 4.81 µM | 7.32 mL/min/kg | 1.05 µM
Cc1ccc(-c2cc(=O)c3cccc(Cl)c3o2)c(O[C@H]2C[C@@H](C(=O)O)C2)c1 [Example B018-A, Cis-3-[2-(8-chloro-4-oxo-chromen-2-yl)-5-methyl-phenoxy]cyclobutanecarboxylic acid] | 0.887 µM | 6.15 mL/min/kg | 0.146 µM
O=c1cc(-c2cc(C(F)(F)F)c(Br)cc2O[C@H]2C[C@H](C(=O)O)C2)oc2c(Cl)cccc12 [Example B024, Trans-3-[5-bromo-2-(8-chloro-4-oxo-chromen-2-yl)-4-(trifluoromethyl)phenoxy]cyclobutanecarboxylic acid] | 6.84 µM | 7.41 mL/min/kg | 1.64 µM
O=c1cc(-c2ccc(C(F)(F)F)cc2O[C@H]2C[C@H](C(=O)NS(=O)(=O)C3CC3)C2)oc2c(Cl)cccc12 [Example B043-B, trans-3-[2-(8-chloro-4-oxo-chromen-2-yl)-5-(trifluoromethyl)phenoxy]-N-cyclopropylsulfonyl-cyclobutanecarboxamide] | 3.7 µM | 6.15 mL/min/kg | 1.14 µM
O=C(O)[C@H]1CCN(C(=O)COc2cc(C(F)(F)F)ccc2-c2cc(=O)c3cccc(Cl)c3o2)C1 [Example A083, (3S)-1-[2-[2-(8-chloro-4-oxo-chromen-2-yl)-5-(trifluoromethyl)phenoxy]acetyl]pyrrolidine-3-carboxylic acid] | 9.74 µM | 6.15 mL/min/kg | 5.57 µM
Cc1ccc(-c2cc(=O)c3cccc(Cl)c3o2)c(O[C@H]2C[C@H](C(=O)NS(=O)(=O)C3CC3)C2)c1 [Example B052-B, Trans-3-[2-(8-chloro-4-oxo-chromen-2-yl)-5-methyl-phenoxy]-N-cyclopropylsulfonyl-cyclobutanecarboxamide] | 7.98 µM | 6.15 mL/min/kg | 16.3 µM
Cc1cc(-c2cc(=O)c3cccc(Cl)c3o2)c(OCCCOCC(=O)O)cc1Br [Example C011, 2-[3-[5-bromo-2-(8-chloro-4-oxo-chromen-2-yl)-4-methyl-phenoxy]propoxy]acetic acid] | 8.5 µM | 6.15 mL/min/kg | 10.6 µM
COc1cc(-c2cc(=O)c3cccc(Cl)c3o2)c(OC2CC(C(=O)O)C2)cc1Br (stereo not drawn) [Example B004, 3-[5-bromo-2-(8-chloro-4-oxo-chromen-2-yl)-4-methoxy-phenoxy]cyclobutanecarboxylic acid] | 5.52 µM | 6.15 mL/min/kg | 0.556 µM
Cc1cc(-c2cc(=O)c3cccc(Cl)c3o2)c(OCCC(=O)O)cc1Cl [Example A005, 3-[5-chloro-2-(8-chloro-4-oxo-chromen-2-yl)-4-methyl-phenoxy]propanoic acid] | 0.553 µM | 6.66 mL/min/kg | 1.37 µM
COc1cc(OCCCC(=O)O)c(-c2cc(=O)c3cccc(Cl)c3o2)cc1OC [Example A056, 4-[2-(8-chloro-4-oxo-chromen-2-yl)-4,5-dimethoxy-phenoxy]butanoic acid] | 9.21 µM | 6.15 mL/min/kg | 3.11 µM
Cc1ccc(-c2cc(=O)c3cccc(Cl)c3o2)c(O[C@H]2C[C@@H](C(=O)NS(C)(=O)=O)C2)c1 [Example B051-A, Cis-3-[2-(8-chloro-4-oxo-chromen-2-yl)-5-methyl-phenoxy]-N-methylsulfonyl-cyclobutanecarboxamide] | 3.21 µM | 6.15 mL/min/kg | 6.18 µM
O=C(O)C(O)COc1cc(C(F)(F)F)ccc1-c1cc(=O)c2cccc(Cl)c2o1 (stereo not drawn) [Example B073, 3-[2-(8-chloro-4-oxo-chromen-2-yl)-5-(trifluoromethyl)phenoxy]-2-hydroxy-propanoic acid] | 5.97 µM | 6.15 mL/min/kg | 1.04 µM
COc1cc(OCCO[C@H]2C[C@@H](C(=O)O)C2)c(-c2cc(=O)c3c(C(F)(F)F)ccc(Cl)c3o2)cc1OC [Example C096, Cis-3-[2-[2-[8-chloro-4-oxo-5-(trifluoromethyl)chromen-2-yl]-4,5-dimethoxy-phenoxy]ethoxy]cyclobutanecarboxylic acid] | 7.78 µM | 6.15 mL/min/kg | 3.48 µM
Cc1ccc(-c2cc(=O)c3cccc(Br)c3o2)c(OCCC(=O)O)c1 [Example A024, 3-[2-(8-bromo-4-oxo-chromen-2-yl)-5-methyl-phenoxy]propanoic acid] | 4.09 µM | 6.61 mL/min/kg | 0.57 µM
